The values that follow come from US8367659B2, “Oxazinyl isoflavonoid compounds, medicaments and use” (Marshall Edwards, Inc., priority 2007, dated 2013).

Assay [1] deals with NO synthesis in RAW 264.7 murine macrophages. Put plainly: LPS-induced NO synthesis in RAW 264.7 murine macrophages (Griess). It is filed as cell-based, mouse. The following applies: 10 μM; relative to vehicle alone; FIG. 6. Here is the method:
The mouse macrophage cell line RAW 264.7 was cultured in DMEM supplemented with foetal calf serum (FCS), […] glutamine and 50 U/ml penicillin/streptomycin. Cells were treated with either test compound (in 0.025% DMSO) or vehicle alone, and added one hour before 50 ng/ml LPS. After incubation for 24 h, culture media was collected for PGE2 or TXB2 measurement by ELISA (Cayman Chemical), and TNFα measurement using an ELISA (Becton Dickinson). Nitrite concentration is a quantitative indicator of NO production and was determined by the Griess Reaction. Briefly, 100 μL of Griess reagent was added to 50 μL of each supernatant in duplicate. The absorbance at 550 nm was measured (Molecular Devices, SpectraMax 250 microplate spectrophotometer, CA, USA), and nitrite concentrations were determined against a standard curve of sodium nitrite. The percentage nitrite inhibition was calculated as: [100−(nitrite concentration of sample/nitrite of vehicle control LPS cells)×100]. Results Test compounds were examined a concentration of 10 μM. […] Consequently, to assess the effect of test compounds on various analytes, cell viability was taken into consideration with the use of the formula: Actual effect of test compound=measured effect−(effect on cell viability×measured effect)

Assay [2] has as its system TNFα synthesis in RAW 264.7 murine macrophages. Description: LPS-induced TNFα synthesis in RAW 264.7 murine macrophages. It is filed as cell-based, mouse. Particulars: 10 μM; relative to vehicle alone; FIG. 5. On the procedure:
The mouse macrophage cell line RAW 264.7 was cultured in DMEM supplemented with foetal calf serum (FCS), […] glutamine and 50 U/ml penicillin/streptomycin. Cells were treated with either test compound (in 0.025% DMSO) or vehicle alone, and added one hour before 50 ng/ml LPS. After incubation for 24 h, culture media was collected for PGE2 or TXB2 measurement by ELISA (Cayman Chemical), and TNFα measurement using an ELISA (Becton Dickinson). Test compounds were examined a concentration of 10 μM. […] Consequently, to assess the effect of test compounds on various analytes, cell viability was taken into consideration with the use of the formula: Actual effect of test compound=measured effect−(effect on cell viability×measured effect)

Assay [3] can be described thus: Free radical scavenging with DPPH. The following applies: for EC50: DPPH, read-out: Free radical scavenging ability EC50. On the procedure: The antioxidant (free radical trapping) activity of test compounds was assessed using the stable free radical compound 2,2-diphenyl-1-picrylhydrazyl (DPPH). A stock solution of DPPH was prepared at a concentration of […] in ethanol and mixed for 10 minutes prior to use. Test compounds at a concentration of 100 μM were reacted with DPPH for, 20 minutes, alter which time the absorbance at 517 nm was determined. Initial screening of was done at 100 μM. The change in absorbance at 517 nm was compared to a reagent blank (DPPH with ethanol alone). […] The IC50 values were estimated as the concentration of test compound that caused a 0.6 change in absorbance (with 1.2 absorbance units representing total scavenging of the DPPH radical).
The antioxidant (free radical trapping) activity of test compounds was assessed using the stable free radical compound 2,2-diphenyl-1-picrylhydrazyl (DPPH). A stock solution of DPPH was prepared […] in ethanol and mixed for 10 minutes prior to use. Initial screening of test compound at a concentration of 100 μM was reacted with DPPH for 20 minutes, after which time the absorbance at 517 nm was determined. The change in absorbance was compared to a reagent blank (DPPH with ethanol alone). […] The IC50 value was estimated as the concentration of test compound that causes a 0.6 change in absorbance (with 1.2 absorbance units representing total scavenging of the DPPH radical).

The subject of the next assay is MM200. Description: Anti-cancer activity, MM200 melanoma cells (MTT). It is filed as cell-based. Particulars: 120 h; 5 days, MTT.
The next assay relates to cancer cell lines. Description: Anti-cancer activity, cancer cell lines tested as a group (MTT). It is filed as cell-based. Particulars: CP70, HPAC and MM200.
A further assay deals with HPAC. Description: Anti-cancer activity, HPAC pancreatic cancer cells (MTT). The format is cell-based. Particulars: Homo sapiens, 120 h, 5 days.
The test system of another assay is CP70. Description: Anti-cancer activity, CP70 ovarian cancer cells (MTT). The format is cell-based. Particulars: 120 h, 5 days.
For assay [4], the target named is T1, GAL4-PPARγ fusion protein (Homo sapiens, UniProt P37231).
T1 construct: host or cells: HEK293 (human embryonic kidney), stably transfected
Description: PPARγ activity in transfected HEK293 cells (beta-lactamase reporter). It is filed as cell-based. Particulars: FIG. 13: 1 μM. Here is the method:
Human HEK293 cells, stably transfected with the PPARγ ligand binding domain fused with the DNA binding domain of the GAL4 protein (GAL4-PPARγ fusion protein), produce beta-lactamase when incubated with PPARγ ligands. Transfected human kidney embryonic cells (Invitrogen Inc., Carlsbad, Calif.) were seeded onto matrigel in 96-well plates and allowed to attach overnight. The following day, vehicle alone (DMSO) or test compound at 1, 5 and 10 μM was added at varying concentrations to cells and incubated for 16-18 hours. Cells were then loaded with a FRET-based fluorescent substrate to assess beta-lactamase activity. Cells were protected from light, and incubated at room temperature for 2 h. Plates were read on a fluorescence plate reader with an excitation wavelength of 409 nm and emission wavelengths of 460 nm and 530 nm. Results were expressed as a ratio of these two wavelengths after the background (cell-free control wells) had been subtracted. PPARγ activity was thus determined by measuring beta-lactamase activity as assessed by a fluorescent product to substrate ratio.

A further assay relates to red blood cells (RBC). Description: Peroxyl radical (AAPH)-induced red blood cell lysis. It is filed as cell-based. Here is the method: Freshly collected heparinised venous blood (10 ml, on ice) was aliquotted into 1.8 ml sterile Eppendorf tubes and centrifuged for 10 minutes at 2600 rpm at 4° C. Plasma and buffy coat layers were removed (approximately […]) and packed red blood cells (RBC) were then washed by the addition of […], ice cold PBS. This washing procedure was repeated twice. Packed RBC were resuspended by the addition of 900 ml of ice-cold, sterile PBS (and termed RBC stock). RBC stocks were stored at 4° C. for a maximum of three days. All working suspensions of RBC were prepared fresh daily by diluting […] of RBC stock into 10 ml of ice-cold, sterile PBS and […] added to each well.
Stocks of AAPH were freshly prepared for individual experiments as follows. AAPH (1.22 gm) was dissolved in 7.5 ml of PBS to yield a 4× stock at 600 mM and […] aliquots (final concentration of 150 mM) were then added to each well to initiate the lysis assay. Stock solutions of test compounds (40 mM in 100% DMSO) were diluted in sterile PBS to yield final concentrations of […] per well. Appropriate controls were included in each experiment. All compound dilutions were adjusted to give final DMSO concentrations in each well of 0.25%. Peroxy-induced RBC lysis assays were performed in 96-flat bottom well microtitre plates with a total volume of […] per well. Turbidity of RBC suspensions were monitored using a Tecan microplate reader at 690 nm (37° C.) with gentle vortexing. Assays were performed in quadruplicate and readings were taken every 5 minutes over 5 hours. RBC lysis curves were constructed by plotting absorbance (mean of 4 readings) against time. Time to half-lysis was calculated by taking the highest absorbance reading (no lysis) and the lowest absorbance reading (maximum lysis). The sum of these two readings divided by two gave the absorbance at half-lysis. Simple regression analysis was used to calculate the time at which half-lysis absorbance occurred.
This comparative study was conducted according to the assay method set out in the example at Section 3.3 above.

Assay [5] relates to NFκB-promoter activity in TNFa-stimulated THP-1 monocyte/macrophages. Put plainly: NFκB promoter activity in TNFα-stimulated THP-1 cells (beta-lactamase reporter). It is filed as cell-based, human. Particulars: 30 μM; FIG. 19. Here is the method: The assay utilizes a genetically modified THP-1 cell line and GeneBLAzer® beta-lactamase technology (Invitrogen Corp). The human THP-1 monocyte/macrophages contain a stably-transfected beta-lactamase reporter gene under control of the NFκB response element They respond to stimulation with TNF-a, which leads to activation of the NFκB signaling pathway. Co-incubation of cells with TNF-a and test material allows quantitative determination of the ability of test material to inhibit TNFa-stimulated beta-lactamase production. Inflammatory index is calculated as the ratio of beta-lactamase product to beta-lactamase substrate. In brief, genetically modified THP-1 cells were seeded into wells of a 96-well plate (50×10^3 cells/well) in the presence of RPMI 1640 medium (70 μl). TNFα was added to each well (10 μl) to give a final concentration of 7.5 ng/ml. Dialyzed bovine serum was added (10 μl). Compounds dissolved in DMSO (10 μL) were then added (5 wells for each compound). Each plate contained a no-cell control (4 wells), a no-serum control (4 wells) and two serum controls. Plates were incubated for 5 h at 37° C. to allow for NFκB-stimulated beta-lactamase production. LiveBLAzer™ FRET B/G Substrate (CCF4-AM) substrate was then added to assay. CCF4-AM is a Forster resonance energy transfer (FRET) based substrate for beta-lactamase developed by Invitrogen Corp. Once CCFA-AM enters a cell, it is converted to negatively charged CCF4 by endogenous esterases. Excitation of this substrate at 409 nm leads to efficient FRET between the coumarin and fluorescein moieties, resulting in a green fluorescence detectable at 530 nm. The presence of beta-lactamase leads to cleavage of CCF4 and results in a loss of FRET, resulting in a robust blue fluorescent signal detectable at 460 nm. Thus, activity of beta-lactamase (a marker of NFκB-promoter activity) is measured as a product to substrate ratio (blue/green fluorescence ratio: 460 nm/530 nm). The determination of inflammatory index has a within-plate CV of 2.1% and a between-plate CV of 8.9% This comparative study was conducted according to the assay method set out in the example at Section 2.4 above.

Where [6] appears, read: 20 minutes, absorbance 517 nm, Table 4.

Where two headings read alike, the source gives them in different places.

T1 sequence (P37231 238-503 limits assumed): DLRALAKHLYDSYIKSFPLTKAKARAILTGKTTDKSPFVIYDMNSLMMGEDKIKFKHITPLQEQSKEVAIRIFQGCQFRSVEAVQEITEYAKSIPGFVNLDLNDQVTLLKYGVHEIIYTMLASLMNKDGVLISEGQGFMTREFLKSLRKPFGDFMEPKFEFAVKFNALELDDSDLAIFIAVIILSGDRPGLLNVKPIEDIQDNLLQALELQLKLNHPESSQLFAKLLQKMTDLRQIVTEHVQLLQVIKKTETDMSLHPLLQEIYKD
T1 sequence (P04386 1-147 partner limits assumed): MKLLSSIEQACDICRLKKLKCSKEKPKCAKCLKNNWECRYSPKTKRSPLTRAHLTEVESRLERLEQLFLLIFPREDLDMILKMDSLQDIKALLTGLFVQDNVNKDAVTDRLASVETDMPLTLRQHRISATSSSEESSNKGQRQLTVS

For the compound `CN1COc2cc3c(cc2C1)C=C(c1ccc(O)cc1)CO3` [Compound 4, 4-(3-methyl-2,3,4,8-tetrahydrochromeno[6,7-e][1,3]oxazin-7-yl)phenol], the “mean change of LPS-induced NO synthesis” value in assay [1] is “greatest inhibition”. Moreover, in assay [2], the “mean change of LPS-induced TNFα synthesis” value is “greatest inhibition”. For the same compound, in assay [3] (setting [6]), the EC50 was determined as 22.5 µM.
For `COc1ccc(CN2COc3cc4c(cc3C2)C=C(c2ccc(O)cc2)CO4)cc1` [Compound 6, 4-(3-(4-Methoxybenzyl)-2,3,4,8-tetrahydrochromeno[6,7-e][1,3]oxazin-7-yl)phenol], the IC50 with MM200 is 11.3 ± 0.2 µM; with HPAC, 9.64 ± 3.6 µM; in the assay on CP70 it was 5.08 ± 1.5 µM. The “activity against CP70, HPAC and MM200 cell lines” value in the assay on cancer cell lines is “active”. Besides, the “mean change of LPS-induced TNFα synthesis” value in assay [2] was “greatest inhibition”. Further, in [4], the “PPARγ activation, increase in beta-lactamase activity over media only control” value is on record as “PPARγ agonist activity”. The EC50 in assay [3] (setting [6]) was determined as 24 µM.
Consider `Cc1cccc(N2COc3cc4c(cc3C2)C=C(c2ccc(O)cc2)CO4)c1` [Compound 22, 4-(3-m-Tolyl-2,3,4,8-tetrahydrochromeno[6,7-e][1,3]oxazin-7-yl)phenol], for which the “mean change of LPS-induced NO synthesis” value in [1] is “greatest inhibition”. In addition, the “mean change of LPS-induced TNFα synthesis” value in assay [2] is “greatest inhibition”. The “PPARγ activation, increase in beta-lactamase activity over media only control” value in assay [4] was “PPARγ agonist activity”. Also, in assay [3] (setting [6]), the EC50 stood at 21 µM.
On to `O=c1c(-c2ccc(O)cc2)coc2cc(O)cc(O)c12` [genistein, reference compound], for which the “antioxidant activity, AAPH-induced time to half-lysis of red blood cells” value in the assay on red blood cells (RBC) is on record as “delaying the AAPH-induced time to half-lysis”. In the assay with red blood cells (RBC) (test compounds at 10 μM, vehicle 40.0, comparative, Table 14), the “Time taken to reach half-lysis, time” value was 93.8 min. Further, the “free radical scavenging / antioxidant activity in DPPH screen” value in assay [3] (100 μM, ΔAbs>0.3 criterion) is given as “no antioxidant activity”. Besides, the EC50 in assay [3] (comparative, Table 13) was more than 100 µM. Besides, the “NFκB inhibition” value in assay [5] is “inhibited NFκB”.
